Reference: publication PMC6298744 (Biochemical pharmacology, 2018)
Structures can show the parent of a compound that is named as a salt. Where two headings read alike, the source gives them in different places.

Legend:
human 5-HT1A receptor [1] = molecular target: T1, human 5-HT1A receptor (Homo sapiens, UniProt P08908); assay: 5-HT1A receptor [^3H]8-OH-DPAT radioligand binding
T1 sequence (P08908 1-422): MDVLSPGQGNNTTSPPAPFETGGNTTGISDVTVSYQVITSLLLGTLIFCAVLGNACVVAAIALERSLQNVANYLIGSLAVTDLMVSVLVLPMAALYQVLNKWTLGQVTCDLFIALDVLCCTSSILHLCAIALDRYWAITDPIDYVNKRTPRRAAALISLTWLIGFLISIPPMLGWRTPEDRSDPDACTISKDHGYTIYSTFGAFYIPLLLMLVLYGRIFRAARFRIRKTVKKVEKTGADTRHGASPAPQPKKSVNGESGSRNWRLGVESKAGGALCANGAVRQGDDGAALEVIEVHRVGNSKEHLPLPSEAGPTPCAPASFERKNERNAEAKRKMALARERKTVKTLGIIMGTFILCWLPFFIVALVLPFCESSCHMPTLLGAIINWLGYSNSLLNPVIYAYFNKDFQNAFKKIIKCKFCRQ

5-HT2A receptor [2] = molecular target: T2, 5-HT2A receptor (Homo sapiens, UniProt P28223); assay: biochemical; type: binding; conditions: for Selectivity (binding ratios) 5-HT2A : 5-HT1A / Selectivity (binding ratios) 5-HT2A : 5-HT2B / Selectivity (binding ratios) 5-HT2A : 5-HT2C: ratio of Ki values
human 5-HT1A receptor [3] = molecular target: T1, human 5-HT1A receptor; assay: 5-HT1A receptor [^35S]GTPγS binding stimulation; type: biochemical; conditions: for Emax: read-out: % maximum stimulation, 5-HT1A stimulation of [^35S]GTPγS binding
5-HT2A receptor [4] = molecular target: T2, 5-HT2A receptor; assay: cell-based; type: cell-based; conditions: for Selectivity (functional ratios) 5-HT2A: 5-HT1A / Selectivity (functional ratios) 5-HT2A: 5-HT2B / Selectivity (functional ratios) 5-HT2A: 5-HT2C: ratio of EC50 values; for Emax: read-out: % maximum stimulation, 5-HT2A stimulation of IP-1 formation
5-HT2B receptor [5] = molecular target: T3, 5-HT2B receptor (Homo sapiens, UniProt P41595); assay: 5-HT2B receptor inositol monophosphate; type: cell-based; conditions: for Emax: read-out: % maximum stimulation, 5-HT2B stimulation of IP-1 formation
hDAT [6] = molecular target: T4, hDAT (Homo sapiens, UniProt Q01959); assay: Inhibition of [^125I]RTI-55 binding to hDAT
hSERT [7] = molecular target: T5, hSERT (Homo sapiens, UniProt P31645); assay: Inhibition of [^125I]RTI-55 binding to hSERT
hNET [8] = molecular target: T6, hNET (Homo sapiens, UniProt P23975); assay: biochemical; type: binding
hDAT [9] = molecular target: T4, hDAT; assay: Release of preloaded [^3H]DA from HEK-hDAT cells; type: cell-based; conditions: for % maximum release, hDAT [^3H]DA: relative to maximum release induced by METH (1–10 μM)
hSERT [10] = molecular target: T5, hSERT; assay: Release of preloaded [^3H]5-HT from HEK-hSERT cells; type: cell-based; conditions: for % maximum release, hSERT [^3H]5-HT: relative to maximum release induced by METH (0.3–1 mM)
hNET [11] = molecular target: T6, hNET; assay: Release of preloaded [^3H]NE from HEK-hNET cells; type: cell-based; conditions: for % maximum release, hNET [^3H]NE: relative to maximum release induced by METH (0.3–1 μM)
hDAT [12] = molecular target: T4, hDAT; assay: Inhibition of [^3H]DA uptake by HEK-hDAT cells; type: cell-based
hNET [13] = molecular target: T6, hNET; assay: cell-based
[14] = taken hours after ingestion; cited from earlier work
5-HT2C receptor = molecular target: T7, 5-HT2C receptor (Homo sapiens, UniProt P28335); assay: cell-based; conditions: for Emax: read-out: % maximum stimulation, 5-HT2C stimulation of IP-1 formation
T7 sequence (P28335 33-458): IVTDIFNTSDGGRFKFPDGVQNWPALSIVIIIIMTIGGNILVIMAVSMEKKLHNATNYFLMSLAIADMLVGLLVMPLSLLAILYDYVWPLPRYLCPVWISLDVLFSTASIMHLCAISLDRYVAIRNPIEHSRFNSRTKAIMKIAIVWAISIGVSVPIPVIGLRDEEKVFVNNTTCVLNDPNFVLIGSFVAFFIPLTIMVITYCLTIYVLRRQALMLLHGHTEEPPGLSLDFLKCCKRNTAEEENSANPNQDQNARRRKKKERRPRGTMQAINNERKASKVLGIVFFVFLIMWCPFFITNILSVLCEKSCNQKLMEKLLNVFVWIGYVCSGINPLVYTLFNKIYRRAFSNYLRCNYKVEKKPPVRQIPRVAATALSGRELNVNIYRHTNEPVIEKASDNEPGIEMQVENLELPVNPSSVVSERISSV

hSERT [15] = molecular target: T5, hSERT; assay: Inhibition of [^3H]5-HT uptake by HEK-hSERT cells; type: cell-based
5-HT2B receptor [16] = molecular target: T3, 5-HT2B receptor; assay: 5-HT2B receptor [^3H]5-HT binding
[17] = normalized to the maximal stimulation by 5-HT
[18] = EC50, 5-HT2A stimulation of IP-1 formation, mean ± sem

T5 sequence (P31645 whole entry): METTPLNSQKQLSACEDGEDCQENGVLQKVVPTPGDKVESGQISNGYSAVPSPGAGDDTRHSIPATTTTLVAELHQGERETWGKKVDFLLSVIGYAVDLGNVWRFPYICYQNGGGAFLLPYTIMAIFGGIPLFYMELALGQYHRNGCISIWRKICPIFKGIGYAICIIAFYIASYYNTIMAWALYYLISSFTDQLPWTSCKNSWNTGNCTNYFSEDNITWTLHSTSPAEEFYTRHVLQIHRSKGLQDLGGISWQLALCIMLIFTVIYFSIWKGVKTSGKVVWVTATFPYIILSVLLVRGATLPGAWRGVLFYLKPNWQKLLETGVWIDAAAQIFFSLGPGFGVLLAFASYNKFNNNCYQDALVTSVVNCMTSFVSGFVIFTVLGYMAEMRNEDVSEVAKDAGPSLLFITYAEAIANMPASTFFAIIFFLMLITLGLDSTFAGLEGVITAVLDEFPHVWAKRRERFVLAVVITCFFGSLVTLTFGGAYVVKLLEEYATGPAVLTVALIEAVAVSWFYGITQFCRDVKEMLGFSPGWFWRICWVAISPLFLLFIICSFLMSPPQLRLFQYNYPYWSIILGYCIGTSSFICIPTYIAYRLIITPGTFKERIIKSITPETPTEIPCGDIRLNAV
T3 sequence (P41595 whole entry): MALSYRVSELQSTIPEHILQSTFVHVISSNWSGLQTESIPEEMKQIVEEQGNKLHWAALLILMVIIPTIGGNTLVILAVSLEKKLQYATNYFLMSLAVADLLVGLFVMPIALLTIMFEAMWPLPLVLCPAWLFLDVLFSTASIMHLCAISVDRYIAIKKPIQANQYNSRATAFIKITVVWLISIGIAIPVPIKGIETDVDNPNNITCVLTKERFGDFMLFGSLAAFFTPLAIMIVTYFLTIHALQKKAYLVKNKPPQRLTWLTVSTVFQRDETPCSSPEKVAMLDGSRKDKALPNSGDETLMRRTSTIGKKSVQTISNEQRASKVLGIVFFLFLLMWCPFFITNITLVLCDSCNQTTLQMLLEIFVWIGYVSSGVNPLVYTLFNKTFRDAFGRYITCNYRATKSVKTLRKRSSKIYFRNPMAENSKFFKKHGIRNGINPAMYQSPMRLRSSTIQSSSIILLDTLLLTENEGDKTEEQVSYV
T6 sequence (P23975 whole entry): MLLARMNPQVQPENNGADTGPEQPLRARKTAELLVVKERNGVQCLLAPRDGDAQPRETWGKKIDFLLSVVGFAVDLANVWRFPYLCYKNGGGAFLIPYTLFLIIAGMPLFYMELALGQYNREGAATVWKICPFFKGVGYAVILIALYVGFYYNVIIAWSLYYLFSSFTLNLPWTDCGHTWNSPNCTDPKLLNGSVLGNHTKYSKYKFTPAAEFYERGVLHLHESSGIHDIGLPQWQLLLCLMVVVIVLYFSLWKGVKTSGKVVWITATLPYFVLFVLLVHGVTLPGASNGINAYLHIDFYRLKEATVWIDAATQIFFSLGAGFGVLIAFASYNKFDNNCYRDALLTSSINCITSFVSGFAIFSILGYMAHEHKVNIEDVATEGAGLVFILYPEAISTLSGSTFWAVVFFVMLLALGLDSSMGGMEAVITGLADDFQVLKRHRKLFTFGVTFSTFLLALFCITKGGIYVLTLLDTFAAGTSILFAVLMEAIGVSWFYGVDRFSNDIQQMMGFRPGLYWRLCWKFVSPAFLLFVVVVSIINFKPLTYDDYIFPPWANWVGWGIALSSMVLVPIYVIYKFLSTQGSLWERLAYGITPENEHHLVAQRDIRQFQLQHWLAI
T2 sequence (P28223 whole entry): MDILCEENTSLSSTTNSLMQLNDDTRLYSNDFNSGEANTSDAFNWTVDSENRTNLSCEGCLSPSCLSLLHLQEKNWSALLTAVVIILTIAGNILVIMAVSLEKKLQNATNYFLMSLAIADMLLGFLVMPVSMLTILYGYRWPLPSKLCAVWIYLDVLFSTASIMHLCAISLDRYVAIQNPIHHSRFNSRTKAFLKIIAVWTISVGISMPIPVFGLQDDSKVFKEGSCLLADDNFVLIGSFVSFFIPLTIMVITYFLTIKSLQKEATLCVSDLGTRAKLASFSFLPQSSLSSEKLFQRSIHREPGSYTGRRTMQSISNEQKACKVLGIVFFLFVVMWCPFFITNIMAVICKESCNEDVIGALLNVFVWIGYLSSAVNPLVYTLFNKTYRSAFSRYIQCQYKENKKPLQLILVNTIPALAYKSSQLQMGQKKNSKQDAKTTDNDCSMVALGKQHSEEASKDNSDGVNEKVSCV
T4 sequence (Q01959 whole entry): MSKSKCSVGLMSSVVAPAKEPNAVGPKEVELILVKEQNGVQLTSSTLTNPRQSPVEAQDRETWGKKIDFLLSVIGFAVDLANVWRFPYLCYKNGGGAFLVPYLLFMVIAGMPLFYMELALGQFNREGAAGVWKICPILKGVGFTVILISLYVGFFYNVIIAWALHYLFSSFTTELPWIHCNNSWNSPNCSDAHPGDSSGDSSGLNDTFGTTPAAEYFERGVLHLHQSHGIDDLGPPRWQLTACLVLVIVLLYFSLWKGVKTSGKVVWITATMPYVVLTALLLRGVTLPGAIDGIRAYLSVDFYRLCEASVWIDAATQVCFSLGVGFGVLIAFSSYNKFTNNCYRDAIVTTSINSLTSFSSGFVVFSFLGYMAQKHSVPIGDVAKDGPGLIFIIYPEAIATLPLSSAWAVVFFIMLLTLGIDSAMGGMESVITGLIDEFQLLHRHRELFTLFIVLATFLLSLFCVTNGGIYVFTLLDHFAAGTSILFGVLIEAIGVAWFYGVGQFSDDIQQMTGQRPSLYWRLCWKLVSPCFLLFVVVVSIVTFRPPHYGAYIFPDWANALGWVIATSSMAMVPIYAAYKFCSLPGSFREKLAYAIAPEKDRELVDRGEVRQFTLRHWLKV

Row | SMILES | % maximum release, hDAT [^3H]DA (hDAT [9]) [%] | % maximum release, hSERT [^3H]5-HT (hSERT [10]) [%] | % maximum release, hNET [^3H]NE (hNET [11]) [%] | Ki (hDAT [6]) [µM] | Ki (hNET [8]) [µM] | IC50 (hDAT [12]) [µM] | IC50 (hNET [13]) [nM] | Ki (human 5-HT1A receptor [1]) [µM] | Ki (5-HT2A receptor [2]) [nM] | Selectivity (binding ratios) 5-HT2A : 5-HT1A (5-HT2A receptor [2]) | Selectivity (binding ratios) 5-HT2A : 5-HT2B (5-HT2A receptor [2]) | Selectivity (binding ratios) 5-HT2A : 5-HT2C (5-HT2A receptor [2]) | EC50 (human 5-HT1A receptor [3]) [µM] | Emax (human 5-HT1A receptor [3]) [%] | EC50 (5-HT2A receptor [4]; [18]) [nM] | Selectivity (functional ratios) 5-HT2A: 5-HT1A (5-HT2A receptor [4]) | Selectivity (functional ratios) 5-HT2A: 5-HT2B (5-HT2A receptor [4]) | Selectivity (functional ratios) 5-HT2A: 5-HT2C (5-HT2A receptor [4]) | Emax (5-HT2A receptor [4]) [%] | EC50 (5-HT2B receptor [5]) [nM] | other results
1 | COc1cc(CC(C)N)c(OC)cc1C (single isomer, unassigned; (-)) [DOM, (-)2,5-dimethoxy-4-methylamphetamine, reference compound] | −0.20 ± 0.16 | 2.9 ± 3.4 | 25.5 ± 2.0 | – | – | – | – | – | – | – | – | – | – | – | – | – | – | – | – | – | Ki (human 5-HT1A receptor [1]; read-out: Inhibition of radioligand binding Ki, 5-HT1A [^3H]8OH-DPAT, mean ± sem, recombinant human 5-HT1A in HEK cells, agonist radioligand): 3.66 ± 0.47 µM; Ki (5-HT2A receptor [2]; read-out: Inhibition of radioligand binding Ki, 5-HT2A [^125I]DOI): 18.3 nM; % maximum stimulation, 5-HT1A stimulation of [^35S]GTPγS binding (human 5-HT1A receptor [3]; [17]): 74 ± 25%; EC50 (human 5-HT1A receptor [3]; read-out: EC50, 5-HT1A stimulation of [^35S]GTPγS binding, mean ± sem): 12.8 ± 4.7 µM; % maximum stimulation, 5-HT2A stimulation of IP-1 formation (5-HT2A receptor [4]): 39.9 ± 5.4 (3) 94.6 ± 4.1%; EC50 (5-HT2A receptor [4]; read-out: EC50, 5-HT2A stimulation of IP-1 formation): 39.9 nM; % maximum stimulation, 5-HT2B stimulation of IP-1 formation (5-HT2B receptor [5]; [17]): 96.2 ± 3.2%; EC50 (5-HT2B receptor [5]; read-out: EC50, 5-HT2B stimulation of IP-1 formation, mean ± sem): 145 ± 47 nM; Ki (hDAT [6]; read-out: Inhibition of [^125I]RTI-55 binding Ki, hDAT, mean ± sem, HEK-hDAT): > 100 µM; Ki (hSERT [7]; read-out: Inhibition of [^125I]RTI-55 binding Ki, hSERT, mean ± sem, HEK-hSERT): > 100000 nM; Ki (hNET [8]; read-out: Inhibition of [^125I]RTI-55 binding Ki, hNET, mean ± sem, HEK-hNET): > 100 µM; EC50 (hDAT [9]; read-out: Drug-induced release of [^3H]neurotransmitter EC50, hDAT [^3H]DA, mean ± sem, HEK-hDAT): > 100 µM; EC50 (hSERT [10]; read-out: Drug-induced release of [^3H]neurotransmitter EC50, hSERT [^3H]5-HT, mean ± sem, HEK-hSERT): > 100 µM; EC50 (hNET [11]; read-out: Drug-induced release of [^3H]neurotransmitter EC50, hNET [^3H]NE, mean ± sem, HEK-hNET): > 42 µM
2 | NCCc1c[nH]c2ccc(O)cc12 [5-HT, Serotonin hydrochloride, reference compound] | – | – | – | 375 ± 83 | 392 ± 10 | 3.36 ± 0.32 | 7200 ± 2500 | – | – | – | – | – | – | – | – | – | – | – | – | – | –
3 | COc1cc(CCNCc2ccccc2OC)c(OC)cc1Cl [25C-NBOMe] | – | – | – | – | – | – | – | – | – | – | – | – | – | – | – | – | – | – | – | – | Human blood concentration [14]: 2.80 ng/mL
4 | COc1cc(CCNCc2ccccc2OC)c(OC)cc1C [25D-NBOMe, 2-(2,5-dimethoxy-4-methylphenyl)-N-(2-methoxybenzyl)ethanamine] | 0.75 ± 0.48 | 0.59 ± 0.24 | 14.3 ± 8.5 | 34.5 ± 4.2 | 6.7 ± 1.3 | > 85 | 1170 ± 140 | 4.51 ± 0.73 | 0.22 ± 0.026 | 20500 | 9.3 | 3.1 | 5.9 ± 1.9 | 55 | 1.53 ± 0.1 | 3900 | 21 | 0.90 | 95.1 | 32.3 ± 6.8 | Emax (5-HT2B receptor [5]): 47.7%; EC50 (5-HT2C receptor): 1.37 ± 0.36 nM; Emax (5-HT2C receptor): 96.1%; Ki (hSERT [7]): 1780 ± 280 nM; IC50 (hSERT [15]): 1020 ± 78 nM; EC50 (hDAT [9]): > 100 µM; EC50 (hSERT [10]): > 100 µM; EC50 (hNET [11]): > 33 µM; Ki (5-HT2B receptor [16]): 2.05 ± 0.49 nM
5 | CCc1cc(OC)c(CCNCc2ccccc2OC)cc1OC [25E-NBOMe, 2-(4-ethyl-2,5-dimethoxyphenyl)-N-(2-methoxybenzyl)ethanamine] | 5.8 ± 6.4 | 0.21 ± 0.77 | 17.1 ± 5.9 | 19.6 ± 1.2 | 5.4 ± 1 | 34 ± 10 | 2310 ± 700 | 1.68 ± 0.35 | 0.127 ± 0.019 | 13200 | 8.7 | 2.4 | 13.7 ± 5.6 | 38 | 0.5 ± 0.14 | 27,000 | 47 | 1.9 | 87.1 | 23.5 ± 6 | Emax (5-HT2B receptor [5]): 49.4%; EC50 (5-HT2C receptor): 0.95 ± 0.18 nM; Emax (5-HT2C receptor): 91.8%; Ki (hSERT [7]): 1590 ± 120 nM; IC50 (hSERT [15]): 1440 ± 140 nM; EC50 (hDAT [9]): > 85 µM; EC50 (hSERT [10]): > 100 µM; EC50 (hNET [11]): > 66 µM; Ki (5-HT2B receptor [16]): 1.11 ± 0.32 nM
